Patent US20230372292A1 (priority 2020, published 2023)

Tests used:
[1] = cited from earlier work
interleukin-1β release = conditions: after LPS treatment; cited from earlier work
[2] = osteoarthritis, epilepsy, myocardial infarction (in combination with a platelet inhibitor); cited from earlier work
[3] = tested on: inflammasome-mediated release of IL1beta; assay: Nigericin-induced IL-1β release in PMA-differentiated, LPS-stimulated THP-1 cells (ELISA); type: cell-based, human; conditions: PMA 50 nM 24 h, LPS 1 μg/mL 6 h
Procedure: THP-1 cells come from a child with leukemia. It is a pre-monocytic line, characterized by a suspension of (non-adherent) cells with a well rounded shape. The cells used come from ATCC. The cells are cultured at a density of 0.4.106 /mL in T75 flasks kept upright in RPMI 1640 Medium, Glutamax, Supplement HEPES (ThermoFischer Scientific, #72400027) supplemented with 10% FCS (previously decomplemented and flitre) and 1% PS antibiotics. The cultures are maintained at 37° C. under a humid atmosphere with 5% CO2.
The differentiation of THP-1 is induced by adding phorbol 12-myritate 13-acetate (PMA, 5 mg/mL stock in DMSO, InvivoGen, # tlrl-pma) to the medium. More precisely, the latter mimics the structure of diacylglycerol (DAG) which is an activator of protein Kinase C (PKC). Thus, it allows the stimulation of the expression of transcription factors including NF-kB, which are involved in macrophage differentiation (Park E. K. et al., 2007; Daigneault M. et al., 2010). After treatment with PMA the cells acquire a macrophages-like phenotype, that is, they become adherent and no longer divide. In practice, the cells are seeded on 24-well plates at a density of 300.103 cells/well, the PMA is then added for 24 hours at a concentration of 50 nM. The next day, the cells are washed gently with PBS and fresh complete medium is added, the cells are then left for 3 days. […]

Caspase-4 = target: T1, Caspase-4 (Homo sapiens, UniProt P49662); conditions: active form of Belnacasan; cited from earlier work
T1 sequence (P49662 81-270 limits assumed): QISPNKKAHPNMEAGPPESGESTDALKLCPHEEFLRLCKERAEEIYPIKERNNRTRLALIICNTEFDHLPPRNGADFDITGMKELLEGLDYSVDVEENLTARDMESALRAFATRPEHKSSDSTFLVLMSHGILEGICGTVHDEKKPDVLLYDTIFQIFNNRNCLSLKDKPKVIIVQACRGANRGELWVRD
T1 sequence (P49662 290-377 limits assumed): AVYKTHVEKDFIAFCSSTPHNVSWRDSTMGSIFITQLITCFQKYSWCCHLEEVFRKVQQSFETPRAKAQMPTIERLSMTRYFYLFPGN

Caspase-9 = target: T2, Caspase-9 (Homo sapiens, UniProt P55211); conditions: active form of Belnacasan; cited from earlier work
T2 sequence (P55211 1-315 limits assumed): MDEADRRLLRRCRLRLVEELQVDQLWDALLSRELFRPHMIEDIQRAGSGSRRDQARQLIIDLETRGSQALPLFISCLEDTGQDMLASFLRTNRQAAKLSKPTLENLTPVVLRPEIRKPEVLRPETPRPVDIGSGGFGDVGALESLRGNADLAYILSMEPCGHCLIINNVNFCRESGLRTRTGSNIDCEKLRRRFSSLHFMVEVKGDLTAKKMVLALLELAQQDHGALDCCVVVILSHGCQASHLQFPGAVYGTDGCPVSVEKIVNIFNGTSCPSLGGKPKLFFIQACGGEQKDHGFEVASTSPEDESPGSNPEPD
T2 sequence (P55211 331-416 limits assumed): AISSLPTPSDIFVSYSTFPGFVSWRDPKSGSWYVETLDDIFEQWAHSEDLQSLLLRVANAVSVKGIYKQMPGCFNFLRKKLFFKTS

Caspase-3 = target: T3, Caspase-3 (Homo sapiens, UniProt P42574); conditions: active form of Belnacasan; cited from earlier work
T3 sequence (P42574 29-175 limits assumed): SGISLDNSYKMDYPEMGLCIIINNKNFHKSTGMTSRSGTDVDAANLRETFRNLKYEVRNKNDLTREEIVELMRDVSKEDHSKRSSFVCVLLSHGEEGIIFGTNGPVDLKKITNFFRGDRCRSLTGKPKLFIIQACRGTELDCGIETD
T3 sequence (P42574 176-277 limits assumed): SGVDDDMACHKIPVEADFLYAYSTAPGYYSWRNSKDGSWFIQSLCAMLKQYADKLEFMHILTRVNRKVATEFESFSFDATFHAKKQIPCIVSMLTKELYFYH

Caspase-7 = target: T4, Caspase-7 (Homo sapiens, UniProt P55210); conditions: active form of Belnacasan; cited from earlier work
T4 sequence (P55210 24-198 limits assumed): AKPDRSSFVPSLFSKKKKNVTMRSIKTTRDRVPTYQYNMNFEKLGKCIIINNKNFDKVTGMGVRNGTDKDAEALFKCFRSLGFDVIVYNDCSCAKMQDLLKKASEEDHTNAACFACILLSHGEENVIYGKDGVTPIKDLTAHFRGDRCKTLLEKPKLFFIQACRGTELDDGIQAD
T4 sequence (P55210 207-303 limits assumed): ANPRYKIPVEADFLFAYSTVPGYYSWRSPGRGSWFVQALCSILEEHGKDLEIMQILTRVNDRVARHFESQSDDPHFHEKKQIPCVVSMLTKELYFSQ

SMILES | tolerability in humans ([1]; oral) | decrease in the frequency of epileptic episodes (secondary endpoint) ([1]; phase 2b, 60 patients with epilepsy (48 VX-765), no statistical superiority vs placebo) [%] | primary endpoint of safety and tolerance ([1]; phase 2b, 60 patients with epilepsy) | efficacy in cellular models of interleukin-1β release (interleukin-1β release) | efficacy in animal models [2] | reduction of the release of the cytokine IL-1β into the medium ([3]; 25 μM, after 120 minutes of Nigericin treatment) [%] | release of IL-1beta induced by nigericin ([3]; Nigericin 5 μM for 60 and 120 minutes, n=3) | Ki (Caspase-4) [nM] | Ki (Caspase-9) [nM] | Ki (Caspase-3) [µM] | Ki (Caspase-7) [µM]
CCO[C@@H]1OC(=O)C[C@@H]1NC(=O)[C@@H]1CCCN1C(=O)[C@@H](NC(=O)c1ccc(N)c(Cl)c1)C(C)(C)C [Belnacasan, (S)-1-((S)-2-(4-Amino-3-chlorobenzamido)-3,3-dimethylbutanoyl)-N-((2R,3S)-2-ethoxy-5-oxotetrahydrofuran-3-yl)pyrrolidine-2-carboxamide] | well tolerated | 15.6 | reached | effective | significant efficacy | 90 | prevents the release |  |  |  | 
CC(C)(C)[C@H](NC(=O)c1ccc(N)c(Cl)c1)C(=O)N1CCC[C@H]1C(=O)N[C@H](C=O)CC(=O)O [VRT-043198] |  |  |  |  |  |  |  | < 0.6 | 1000 | 16 | 21.5
